Activity calls are given as the source filed them. The rule behind the calls is not given here.
Experiments:
Rattus norvegicus [1] = assay: Anti-ulcerative colitis activity in acetic acid-induced ulcerative colitis Wistar rat model assessed as normal mucosa without cryptic loss in colon at 400 mg/kg, po administrated for 14 days by microscopic analysis; type: functional, organism-based; conditions: time 14.0 day
[2] = Toxicity in albino rat assessed as lethality at 2000 mg/kg; type: organism-based; conditions: in vivo
[3] = Toxicity in albino rat assessed as toxic signs at 300 mg/kg observed for 14 days; type: organism-based; conditions: in vivo, 336 h, time 14 day
[4] = Toxicity in albino rat assessed as toxic symptoms at 300 mg/kg observed for 14 days; type: organism-based; conditions: in vivo, 336 h, time 14 day
[5] = Toxicity in albino rat assessed as behavioral changes at 300 mg/kg observed for 14 days; type: organism-based; conditions: in vivo, 336 h, time 14 day
Rattus norvegicus [6] = assay: Anti-ulcerative colitis activity in acetic acid-induced ulcerative colitis Wistar rat model assessed as change in stool uniformity at 400 mg/kg, po administrated for 14 days; type: functional, organism-based; conditions: time 14.0 day
Rattus norvegicus [7] = assay: Anti-ulcerative colitis activity in acetic acid-induced ulcerative colitis Wistar rat model assessed as restoration of normal stool consistency at 400 mg/kg, po administrated for 14 days and measured during initial 4-5 days of treatment; type: functional, organism-based; conditions: time 4-5 day
Rattus norvegicus [8] = assay: Anti-ulcerative colitis activity in acetic acid-induced ulcerative colitis Wistar rat model assessed as decrease in bleeding at 400 mg/kg, po administrated for 14 days and measured during initial 4-5 days of treatment; type: functional, organism-based; conditions: time 4-5 day
Rattus norvegicus [9] = assay: Anti-ulcerative colitis activity in acetic acid-induced ulcerative colitis Wistar rat model assessed as reduction in blood content in feces without change in feces colour at 400 mg/kg, po administrated for 14 days; type: functional, organism-based; conditions: time 14.0 day
Rattus norvegicus [10] = assay: Anti-ulcerative colitis activity in acetic acid-induced ulcerative colitis Wistar rat model assessed as body weight recovery measured as body weight gain at 400 mg/kg, po administrated for 14 days relative to control; type: functional; conditions: time 14 day
Rattus norvegicus [11] = assay: Anti-ulcerative colitis activity in acetic acid-induced ulcerative colitis Wistar rat model assessed as reduction in acetic acid-induced lipid peroxidation by measuring reduction in MDA level in colon at 400 mg/kg, po administrated for 14 days; type: functional, organism-based; conditions: time 14.0 day
Rattus norvegicus [12] = assay: Anti-ulcerative colitis activity in acetic acid-induced ulcerative colitis Wistar rat model assessed as reduction in acetic acid-induced oxidative stress by measuring increase in SOD level in colon at 400 mg/kg, po administrated for 14 days by UV spectrophotometric analysis; type: functional, organism-based; conditions: time 14.0 day
Rattus norvegicus [13] = assay: Anti-ulcerative colitis activity in acetic acid-induced ulcerative colitis Wistar rat model assessed as reduction in diarrhea at 400 mg/kg, po administrated for 14 days and measured during initial 5 to 6 days of treatment; type: functional, organism-based; conditions: time 5-6 day
Rattus norvegicus [14] = assay: Anti-ulcerative colitis activity in acetic acid-induced ulcerative colitis Wistar rat model assessed as reduction in onset of diarrhea at 400 mg/kg, po administrated for 14 days and measured during initial 8 to 9 days of treatment; type: functional, organism-based; conditions: time 8-9 day
Rattus norvegicus [15] = assay: Anti-ulcerative colitis activity in acetic acid-induced Wistar rat ulcerative colitis model assessed as reduction in infiltration of inflammatory cells in colon at 400 mg/kg, po administrated for 14 days by microscopic analysis; type: functional, organism-based; conditions: time 14.0 day
Rattus norvegicus [16] = assay: Anti-ulcerative colitis activity in acetic acid-induced ulcerative colitis Wistar rat model assessed as reduction in damage of mucosa in colon at 400 mg/kg, po administrated for 14 days by microscopic analysis; type: functional, organism-based; conditions: time 14.0 day
Rattus norvegicus [17] = assay: Anti-ulcerative colitis activity in acetic acid-induced ulcerative colitis Wistar rat model assessed as reduction in sub-mucosal edema in colon at 400 mg/kg, po administrated for 14 days by microscopic analysis; type: functional, organism-based; conditions: time 14.0 day
Rattus norvegicus [18] = assay: Anti-ulcerative colitis activity in acetic acid-induced ulcerative colitis Wistar rat model assessed as mild deformation of mucosal layer with disruption of epithelium in colon at 400 mg/kg, po administrated for 14 days by microscopic analysis; type: functional, organism-based; conditions: time 14.0 day
Rattus norvegicus [19] = assay: Anti-ulcerative colitis activity in acetic acid-induced ulcerative colitis Wistar rat model assessed as reduction in blood content in feces with parrot green to green dotted colour at 400 mg/kg,po administrated for 14 days; type: functional, organism-based; conditions: time 14.0 day

SMILES	Activity (Rattus norvegicus [1])	Activity [2]	Activity [3]	Activity [4]	Activity [5]	Activity (Rattus norvegicus [6])	Activity (Rattus norvegicus [7])	Activity (Rattus norvegicus [8])	Activity (Rattus norvegicus [9])	Activity (Rattus norvegicus [10]) [%]	Activity (Rattus norvegicus [11])	Activity (Rattus norvegicus [12])	Activity (Rattus norvegicus [13])	Activity (Rattus norvegicus [14])	Activity (Rattus norvegicus [15])	Activity (Rattus norvegicus [16])	Activity (Rattus norvegicus [17])	Activity (Rattus norvegicus [18])	Activity (Rattus norvegicus [19])
Cc1cc(=O)oc2c(/N=N/c3ccc(O)c(C(=O)O)c3)c(O)ccc12	Active	Toxic	Non-Toxic	Non-Toxic	Non-Toxic	Active	Active	Active	Active	92	Active	Active	Active	Active					
Nc1ccc(O)c(C(=O)O)c1 [MESALAMINE]						Active				88	Active	Active	Active	Active	Active	Active	Active	inactive	Active
